Literature values in patent US20210015755A1, “SECNIDAZOLE SOFT GELATIN CAPSULE AND METHODS AND USES THEREOF” (Lupin Inc., priority 2019, published 2021).

Structure (SMILES)	excreted intact in the urine (in vivo)	absorption after oral administration (oral administration)	effectiveness in the treatment of bacterial vaginosis (bacterial vaginosis; 500 mg ovule formulation versus 37.5 mg metronidazole gel (Sanchez et al.))	cure rates (bacterial vaginosis; intravaginal 750 mg ovule formulation versus 500 mg ovule composition (Aguin et al.))
Cc1ncc([N+](=O)[O-])n1CC(C)O (stereo not shown) [Secnidazole, 1-(2-hydroxypropyl)-2-methyl-5-nitromidazole]	50%	rapidly and completely absorbed	–	–
Cc1ncc([N+](=O)[O-])n1CCO [metronidazole]	–	–	significantly more effective	higher cure rates
